{
  "source": "patent US4512986A",
  "about": "“Progrestationally active steroids” (priority 1983, dated 1985)",
  "key": {"[1]": {"biological_target": "T1, Cytosol Progesterone Receptor of the Estrogen-primed Immature Rabbit Uterus (Oryctolagus cuniculus, UniProt P06186)", "T1 construct": "cytosol progesterone receptor of the estrogen-primed immature rabbit uterus; tissue Dutchland Laboratories, Inc., Denver, Pa (animals); host or cells: uterus cytosol of estradiol-treated immature female New Zealand White rabbits", "T1 sequence (P06186 1-930)": "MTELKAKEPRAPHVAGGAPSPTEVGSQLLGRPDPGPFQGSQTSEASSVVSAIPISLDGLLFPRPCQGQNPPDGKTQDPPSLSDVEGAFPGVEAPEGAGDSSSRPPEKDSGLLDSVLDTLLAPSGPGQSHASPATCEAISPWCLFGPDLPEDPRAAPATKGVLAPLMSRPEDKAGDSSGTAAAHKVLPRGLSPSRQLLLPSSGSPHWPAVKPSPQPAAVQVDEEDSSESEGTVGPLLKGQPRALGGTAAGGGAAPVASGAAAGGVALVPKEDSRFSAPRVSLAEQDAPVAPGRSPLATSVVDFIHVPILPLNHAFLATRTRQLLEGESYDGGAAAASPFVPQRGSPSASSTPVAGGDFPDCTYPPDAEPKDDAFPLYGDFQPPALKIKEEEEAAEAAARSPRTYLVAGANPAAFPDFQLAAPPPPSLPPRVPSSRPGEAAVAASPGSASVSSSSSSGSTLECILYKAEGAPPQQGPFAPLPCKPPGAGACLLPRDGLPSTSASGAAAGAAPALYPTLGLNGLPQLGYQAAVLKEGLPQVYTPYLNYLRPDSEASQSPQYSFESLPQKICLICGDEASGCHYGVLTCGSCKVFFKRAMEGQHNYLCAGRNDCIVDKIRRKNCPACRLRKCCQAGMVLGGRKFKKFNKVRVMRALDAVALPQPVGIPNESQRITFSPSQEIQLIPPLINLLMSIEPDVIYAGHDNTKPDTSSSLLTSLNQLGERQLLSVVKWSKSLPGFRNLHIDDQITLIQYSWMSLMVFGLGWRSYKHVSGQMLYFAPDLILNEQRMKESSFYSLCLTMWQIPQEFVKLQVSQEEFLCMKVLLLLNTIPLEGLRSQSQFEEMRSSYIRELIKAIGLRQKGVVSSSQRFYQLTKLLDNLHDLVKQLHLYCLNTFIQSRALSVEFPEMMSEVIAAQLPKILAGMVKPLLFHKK", "experiment": "Relative binding affinity for progesterone receptor (competition with 3H-progesterone)", "set-up": "species or system rabbit (New Zealand White)", "protocol": "RBA values recorded at 0° C. after short incubation times (e.g., 2 hr) mainly reflect differences in the association rate constants of the competing ligands, whereas those measured after long incubation times (e.g., 16 to 24 hr) and/or higher temperatures predominantly are influenced by differences in the dissociation rate constants of the competing ligands. RBA's determined after short incubation times primarily reflect the association of the competitor compared to the natural hormone. Conversely, RBA's measured after long incubation times reflect the dissociation rate of the competitor compared to the natural hormone.\nThe assay components are combined, allowed to equilibrate, and unbound radioactivity removed by charcoal adsorption.\nAnimal species. Immature female New Zealand White rabbits weighing 0.8 to 1.0 kg (Dutchland Laboratories, Inc., Denver, Pa).\nPretreatment. Subcutaneous treatment with 15 μg 17β-estradiol/0.6 ml sesame oil each morning (0830 to 0930 hr) for three days. Animals sacrificed 24 hr after final injection.\nTissue. Uterus; each uterus weighed about 1.0 g and two or three uteri were pooled for each assay.\nBuffer. (A) 0.01M TES, pH 7.4, 1 mM EDTA, 0.012M thioglycerol and 30% glycerol for cytosol preparation and ^3 H-steroid, unlabeled hormone and compound solutions. (B) 0.01M TES, pH 7.4, 1 mM EDTA and 0.012M thioglycerol for charcoal solution.\nHomogenization. Five or six 5-second bursts with 30 second cooling periods between bursts using Brinkman Polytron Pt. 10 at 3.5 rheostat setting.\nTemperature. 0°-4° C. for all steps.\nCentrifugation. 45,000 rpm for 1 hr, 50 Ti rotor, Beckman L8-80 ultracentrifuge.\nIncubation. 16-18 hr at 4°-6° C.\nConcentations. 1×10^-10 M to 1×10^-5 M (7 concentrations).\nMethod. Charcoal adsorption method used to remove unbound radioactivity. Five-tenths ml of dextran-coated charcoal (0.5% Norit A and 0.05% dextran T-70) added to all tubes except total radioactivity tubes (0.5 ml buffer [B] added), tubes vortexed 3-5 sec, allowed to sit for 10 minutes and centrifuged 10 minutes at 2000 rpm in Beckman TJ-6 centrifuge at 0°-4° C.\nData Interpretation. […] The relative binding affinity (RBA) of each compound was calculated by using the following equation. [formula] where"}, "[2]": {"test_system": "uterine endometrium of estrone-primed immature rabbits", "experiment": "Clauberg assay (progestational activity, McPhail)", "assay_type": "in vivo, rabbit (New Zealand White)", "details": "for McPhail Index (0-4) (X ± S.D.): 0 none, 4 maximal"}, "[3]": {"details": "Assay 2, 16-18 hour incubation, progesterone = 100, 5α-dihydro-17α-ethynyl: lot 1"}, "[4]": {"details": "Assay 3, 16-18 hour incubation, progesterone = 100, 5α-dihydro-17α-ethynyl: lot 1"}, "[5]": {"details": "Assay 4, 16-18 hour incubation, progesterone = 100"}, "[6]": {"details": "Assay 5, 16-18 hour incubation, progesterone = 100"}},
  "data": [
    {"smiles": "C#C[C@]1(C(C)=O)CC[C@H]2[C@@H]3CC[C@H]4CC(=O)CC[C@]4(C)[C@H]3CC[C@@]21C", "note": "[5α-Dihydro-17α-ethynylprogesterone, 17α-Ethynyl-5α-pregnane-3,20-dione]", "values": [
      {"measurement": "RBA, mean of assays (X±S.D.)", "setting": "[1]; 16 to 18 hour incubation at 0° C., spurious value 11 excluded", "result": "154±23"},
      {"measurement": "RBA", "setting": "[1]; Assay 1, 16-18 hour incubation, progesterone = 100, 5α-dihydro-17α-ethynyl: lot 1", "result": 11, "unit": "%"},
      {"measurement": "RBA", "setting": "[1]; [3]", "result": 186, "unit": "%"},
      {"measurement": "RBA", "setting": "[1]; [4]", "result": 144, "unit": "%"},
      {"measurement": "RBA", "setting": "[1]; Assay 3, lot 2, 16-18 hour incubation, progesterone = 100", "result": 133, "unit": "%"},
      {"measurement": "RBA", "setting": "[1]; two-hour incubation at 0° C.", "result": 211},
      {"measurement": "Uterine Weight (X ± S.D.)", "setting": "[2]; oral, 100 μg/rabbit daily", "result": 1.00, "unit": "g"},
      {"measurement": "McPhail Index (0-4) (X ± S.D.)", "setting": "[2]; oral, 100 μg/rabbit daily", "result": 0},
      {"measurement": "Uterine Weight (X ± S.D.)", "setting": "[2]; oral, 200 μg/rabbit daily", "result": "1.30 ± 0.22", "unit": "g"},
      {"measurement": "McPhail Index (0-4) (X ± S.D.)", "setting": "[2]; oral, 200 μg/rabbit daily", "result": "0.04 ± 0.06"},
      {"measurement": "Uterine Weight (X ± S.D.)", "setting": "[2]; oral, 400 μg/rabbit daily", "result": "1.10 ± 0.08", "unit": "g"},
      {"measurement": "McPhail Index (0-4) (X ± S.D.)", "setting": "[2]; oral, 400 μg/rabbit daily", "result": "0.04 ± 0.06"},
      {"measurement": "progestational response, in words", "setting": "[2]; sc 5, 10, 20, 100, 200, 400 and oral 100, 200, 400 μg/rabbit/day", "result": "inactive at all doses examined"},
      {"measurement": "Uterine Weight (X ± S.D.)", "setting": "[2]; sc, 5 μg/rabbit daily", "result": "0.90 ± 0.29", "unit": "g"},
      {"measurement": "McPhail Index (0-4) (X ± S.D.)", "setting": "[2]; sc, 5 μg/rabbit daily", "result": "0.08 ± 0.12"},
      {"measurement": "Uterine Weight (X ± S.D.)", "setting": "[2]; sc, 10 μg/rabbit daily", "result": "1.33 ± 0.09", "unit": "g"},
      {"measurement": "McPhail Index (0-4) (X ± S.D.)", "setting": "[2]; sc, 10 μg/rabbit daily", "result": "0.29 ± 0.24"},
      {"measurement": "Uterine Weight (X ± S.D.)", "setting": "[2]; sc, 20 μg/rabbit daily", "result": "1.03 ± 0.17", "unit": "g"},
      {"measurement": "McPhail Index (0-4) (X ± S.D.)", "setting": "[2]; sc, 20 μg/rabbit daily", "result": "0.04 ± 0.06"},
      {"measurement": "Uterine Weight (X ± S.D.)", "setting": "[2]; sc, 100 μg/rabbit daily", "result": "1.18 ± 0.25", "unit": "g"},
      {"measurement": "McPhail Index (0-4) (X ± S.D.)", "setting": "[2]; sc, 100 μg/rabbit daily", "result": "0.13 ± 0.13"},
      {"measurement": "Uterine Weight (X ± S.D.)", "setting": "[2]; sc, 200 μg/rabbit daily", "result": "1.15 ± 0.07", "unit": "g"},
      {"measurement": "McPhail Index (0-4) (X ± S.D.)", "setting": "[2]; sc, 200 μg/rabbit daily", "result": "0.58 ± 0.16"},
      {"measurement": "Uterine Weight (X ± S.D.)", "setting": "[2]; sc, 400 μg/rabbit daily", "result": "1.24 ± 0.09", "unit": "g"},
      {"measurement": "McPhail Index (0-4) (X ± S.D.)", "setting": "[2]; sc, 400 μg/rabbit daily", "result": "0.33 ± 0.06"}
    ]},
    {"smiles": "C=C[C@]1(C(C)=O)CC[C@H]2[C@@H]3CC[C@H]4CC(=O)CC[C@]4(C)[C@H]3CC[C@@]21C", "note": "[5α-Dihydro-17α-vinylprogesterone]", "values": [
      {"measurement": "RBA", "setting": "[1]; [3]", "result": 47, "unit": "%"},
      {"measurement": "RBA", "setting": "[1]; [4]", "result": 51, "unit": "%"}
    ]},
    {"smiles": "C#C[C@@]1(C(C)=O)CC[C@H]2[C@@H]3C[C@H](C)C4=CC(=O)CC[C@]4(C)[C@H]3CC[C@@]21C", "note": "[6α-Methyl-17α-acetylpregn-4-ene-20-yn-3-one]", "values": [
      {"measurement": "RBA", "setting": "[1]; [5]", "result": 5, "unit": "%"},
      {"measurement": "RBA", "setting": "[1]; [6]", "result": 6, "unit": "%"}
    ]},
    {"smiles": "C#C[C@]1(C(C)=O)CC[C@H]2[C@@H]3C[C@H](C)C4=CC(=O)CC[C@]4(C)[C@H]3CC[C@@]21C", "note": "[6α-Methyl-17α-ethynylprogesterone, 17α-Ethynyl-6α-methylprogesterone]", "values": [
      {"measurement": "RBA", "setting": "[1]; [5]", "result": 63, "unit": "%"},
      {"measurement": "RBA", "setting": "[1]; [6]", "result": 67, "unit": "%"},
      {"measurement": "RBA", "setting": "[1]; Assay 6, 16-18 hour incubation, progesterone = 100", "result": 91, "unit": "%"},
      {"measurement": "potency relative to 6α-methyl-17-acetoxyprogesterone (Provera), in words", "setting": "[2]; both given orally", "result": "at least as twice as potent"},
      {"measurement": "progestational potency relative to subcutaneous progesterone, in words", "setting": "[2]; compound given orally, progesterone sc", "result": "four times more potent than progesterone administered subcutaneously"},
      {"measurement": "Uterine Weight (X ± S.D.)", "setting": "[2]; oral, 10 μg/rabbit daily", "result": "1.28 ± 0.37", "unit": "g"},
      {"measurement": "McPhail Index (0-4) (X ± S.D.)", "setting": "[2]; oral, 10 μg/rabbit daily", "result": "0.67 ± 0.42"},
      {"measurement": "Uterine Weight (X ± S.D.)", "setting": "[2]; oral, 25 μg/rabbit daily", "result": "2.43 ± 0.41", "unit": "g"},
      {"measurement": "McPhail Index (0-4) (X ± S.D.)", "setting": "[2]; oral, 25 μg/rabbit daily", "result": "2.67 ± 1.00"},
      {"measurement": "Uterine Weight (X ± S.D.)", "setting": "[2]; oral, 50 μg/rabbit daily", "result": "3.21 ± 0.79", "unit": "g"},
      {"measurement": "McPhail Index (0-4) (X ± S.D.)", "setting": "[2]; oral, 50 μg/rabbit daily", "result": "3.92 ± 0.12"},
      {"measurement": "Uterine Weight (X ± S.D.)", "setting": "[2]; oral, 100 μg/rabbit daily", "result": "3.28 ± 0.35", "unit": "g"},
      {"measurement": "McPhail Index (0-4) (X ± S.D.)", "setting": "[2]; oral, 100 μg/rabbit daily", "result": "4.00 ± 0.00"},
      {"measurement": "Uterine Weight (X ± S.D.)", "setting": "[2]; sc, 2.5 μg/rabbit daily", "result": "1.31 ± 0.20", "unit": "g"},
      {"measurement": "McPhail Index (0-4) (X ± S.D.)", "setting": "[2]; sc, 2.5 μg/rabbit daily", "result": "0.21 ± 0.06"},
      {"measurement": "Uterine Weight (X ± S.D.)", "setting": "[2]; sc, 5 μg/rabbit daily", "result": "1.84 ± 0.48", "unit": "g"},
      {"measurement": "McPhail Index (0-4) (X ± S.D.)", "setting": "[2]; sc, 5 μg/rabbit daily", "result": "1.29 ± 1.40"},
      {"measurement": "Uterine Weight (X ± S.D.)", "setting": "[2]; sc, 10 μg/rabbit daily", "result": "3.68 ± 0.31", "unit": "g"},
      {"measurement": "McPhail Index (0-4) (X ± S.D.)", "setting": "[2]; sc, 10 μg/rabbit daily", "result": "3.92 ± 0.12"},
      {"measurement": "Uterine Weight (X ± S.D.)", "setting": "[2]; sc, 20 μg/rabbit daily", "result": "3.69 ± 0.62", "unit": "g"},
      {"measurement": "McPhail Index (0-4) (X ± S.D.)", "setting": "[2]; sc, 20 μg/rabbit daily", "result": "4.00 ± 0.00"}
    ]}
  ]
}
